# System: T1, Chick pea β-galactosidase (CpGAL)
# T1 construct: native enzyme purified from dry seeds (local market), homogeneous on SDS-PAGE; soluble (free) form
# Assay: steady-state kinetics, Lineweaver-Burk plot
# Type: biochemical, Cicer arietinum
# Details: soluble enzyme; optimum pH 2.8, 60 °C printed; pH of the Km assay not stated; read-out: Soluble / ONPG
# From the text: steady-state kinetics, Lineweaver-Burk plot on Chick pea β-galactosidase (CpGAL)
smiles,measurement,value
O=[N+]([O-])c1ccccc1O[C@@H]1O[C@H](CO)[C@H](O)[C@H](O)[C@H]1O [ONPG],Km,1730 µM

# Reference: article PMC3399898, “Immobilization of β-Galactosidase onto Functionalized Graphene Nano-sheets Using Response Surface Methodology and Its Analytical Applications” (PLoS ONE, 2012)
